Residual activity and inhibition data for two molecules are collected here from ChEMBL document CHEMBL4507291 (2021).

In experiment [1] the test system is Tyrosine-protein kinase ABL1 (Homo sapiens), P00519 [F317L].
In experiment [2] the test system is Tyrosine-protein kinase ABL1 (Homo sapiens), P00519 [H396P].
The subject of experiment [3] is Tyrosine-protein kinase ABL1 (Homo sapiens), P00519 [Q252H].
Experiment [4] has as its target Tyrosine-protein kinase ABL2 (Homo sapiens) (UniProt P42684).
The target of experiment [5] is 5'-AMP-activated protein kinase catalytic subunit alpha-2 (Homo sapiens) (UniProt P54646).
The target of experiment [6] is Cyclin-dependent kinase 5 (Homo sapiens) (UniProt Q00535).
Cyclin-dependent kinase 5 (Homo sapiens), sequence (Q00535 whole entry, looked up): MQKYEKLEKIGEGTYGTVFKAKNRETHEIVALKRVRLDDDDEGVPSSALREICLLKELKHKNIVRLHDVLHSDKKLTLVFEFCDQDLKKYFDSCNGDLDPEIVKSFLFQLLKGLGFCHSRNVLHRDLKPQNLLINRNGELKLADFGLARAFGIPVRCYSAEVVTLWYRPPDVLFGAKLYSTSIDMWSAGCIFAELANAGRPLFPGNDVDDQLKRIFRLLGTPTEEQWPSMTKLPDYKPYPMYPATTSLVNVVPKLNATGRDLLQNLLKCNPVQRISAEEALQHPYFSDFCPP
Experiment [7] addresses Cyclin-dependent kinase-like 3 (Homo sapiens) (UniProt Q8IVW4).
The target of experiment [8] is Serine/threonine-protein kinase/endoribonuclease IRE1 (Homo sapiens) (UniProt O75460).
Serine/threonine-protein kinase/endoribonuclease IRE1 (Homo sapiens), sequence (O75460 19-977 limits assumed): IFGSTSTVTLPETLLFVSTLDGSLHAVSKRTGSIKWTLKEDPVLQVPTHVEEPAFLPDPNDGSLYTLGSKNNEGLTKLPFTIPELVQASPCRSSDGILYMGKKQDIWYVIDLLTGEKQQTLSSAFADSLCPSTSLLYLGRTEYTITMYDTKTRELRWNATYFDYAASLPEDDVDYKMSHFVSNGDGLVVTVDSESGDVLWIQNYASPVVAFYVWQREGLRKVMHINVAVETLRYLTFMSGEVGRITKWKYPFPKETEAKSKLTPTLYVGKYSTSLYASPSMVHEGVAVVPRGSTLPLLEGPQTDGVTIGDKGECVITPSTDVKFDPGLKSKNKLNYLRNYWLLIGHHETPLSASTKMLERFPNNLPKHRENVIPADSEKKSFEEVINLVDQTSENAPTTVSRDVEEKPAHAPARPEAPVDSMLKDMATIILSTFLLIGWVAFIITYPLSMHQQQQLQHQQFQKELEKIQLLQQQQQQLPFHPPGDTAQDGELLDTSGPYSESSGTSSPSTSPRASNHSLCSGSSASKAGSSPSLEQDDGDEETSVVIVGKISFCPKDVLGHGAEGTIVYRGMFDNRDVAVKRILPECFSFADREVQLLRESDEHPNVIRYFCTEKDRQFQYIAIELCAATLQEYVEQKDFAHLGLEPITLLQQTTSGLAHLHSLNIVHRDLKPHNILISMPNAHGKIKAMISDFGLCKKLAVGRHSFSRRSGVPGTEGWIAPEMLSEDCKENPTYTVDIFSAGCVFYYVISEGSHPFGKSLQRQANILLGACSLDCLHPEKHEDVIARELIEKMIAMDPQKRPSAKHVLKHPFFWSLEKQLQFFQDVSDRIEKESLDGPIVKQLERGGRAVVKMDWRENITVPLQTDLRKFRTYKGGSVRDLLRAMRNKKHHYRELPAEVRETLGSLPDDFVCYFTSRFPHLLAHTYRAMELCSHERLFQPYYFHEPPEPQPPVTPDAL
Experiment [9] concerns Receptor-type tyrosine-protein kinase FLT3 (Homo sapiens), P36888 [K663Q].
In experiment [10] the target is Tyrosine-protein kinase Fyn (Homo sapiens) (UniProt P06241).
Tyrosine-protein kinase Fyn (Homo sapiens), sequence (P06241 2-537 limits assumed): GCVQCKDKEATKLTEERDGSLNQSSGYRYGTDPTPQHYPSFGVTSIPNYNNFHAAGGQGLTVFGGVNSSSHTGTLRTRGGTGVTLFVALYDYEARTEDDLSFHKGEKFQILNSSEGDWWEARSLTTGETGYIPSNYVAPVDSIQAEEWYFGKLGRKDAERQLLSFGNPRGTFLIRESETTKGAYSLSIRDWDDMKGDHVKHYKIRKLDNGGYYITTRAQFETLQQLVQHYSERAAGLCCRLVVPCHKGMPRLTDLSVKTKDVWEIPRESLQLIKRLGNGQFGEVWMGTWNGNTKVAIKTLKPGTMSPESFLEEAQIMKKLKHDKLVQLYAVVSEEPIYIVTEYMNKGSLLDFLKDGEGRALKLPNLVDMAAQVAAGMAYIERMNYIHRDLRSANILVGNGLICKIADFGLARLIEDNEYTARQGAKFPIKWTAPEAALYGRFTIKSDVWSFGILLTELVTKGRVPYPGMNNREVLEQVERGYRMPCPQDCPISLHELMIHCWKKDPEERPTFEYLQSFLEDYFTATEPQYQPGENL
The target in experiment [11] is Mitogen-activated protein kinase kinase kinase kinase 3 (Homo sapiens) (UniProt Q8IVH8).
Mitogen-activated protein kinase kinase kinase kinase 3 (Homo sapiens), sequence (Q8IVH8 whole entry): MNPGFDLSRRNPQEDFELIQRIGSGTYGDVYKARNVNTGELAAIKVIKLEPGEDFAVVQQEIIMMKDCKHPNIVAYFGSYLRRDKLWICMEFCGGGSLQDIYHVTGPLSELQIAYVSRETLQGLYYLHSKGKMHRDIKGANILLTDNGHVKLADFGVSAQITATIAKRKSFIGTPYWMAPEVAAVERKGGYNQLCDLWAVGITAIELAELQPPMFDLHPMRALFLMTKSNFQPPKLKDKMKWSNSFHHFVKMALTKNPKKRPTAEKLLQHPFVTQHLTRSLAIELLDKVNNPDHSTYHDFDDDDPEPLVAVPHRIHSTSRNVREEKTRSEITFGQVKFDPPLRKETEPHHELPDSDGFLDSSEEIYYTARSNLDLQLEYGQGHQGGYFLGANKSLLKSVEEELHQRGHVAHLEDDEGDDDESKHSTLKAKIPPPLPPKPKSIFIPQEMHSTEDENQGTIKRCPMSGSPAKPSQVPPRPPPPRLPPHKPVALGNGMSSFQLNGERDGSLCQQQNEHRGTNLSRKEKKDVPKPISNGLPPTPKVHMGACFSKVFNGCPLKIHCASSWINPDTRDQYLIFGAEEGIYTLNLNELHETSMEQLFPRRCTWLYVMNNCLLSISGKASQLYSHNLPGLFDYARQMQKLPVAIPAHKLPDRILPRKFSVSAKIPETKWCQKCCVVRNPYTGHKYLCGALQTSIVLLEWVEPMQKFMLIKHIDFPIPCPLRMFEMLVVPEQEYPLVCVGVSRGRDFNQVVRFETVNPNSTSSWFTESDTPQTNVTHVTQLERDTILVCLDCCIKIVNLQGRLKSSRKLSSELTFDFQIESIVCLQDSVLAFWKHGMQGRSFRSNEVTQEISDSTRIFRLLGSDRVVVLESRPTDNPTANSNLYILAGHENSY
The target of experiment [12] is T1, MAP kinase-activated protein kinase 5 (Homo sapiens) (UniProt Q8IW41).
T1 sequence (whole entry): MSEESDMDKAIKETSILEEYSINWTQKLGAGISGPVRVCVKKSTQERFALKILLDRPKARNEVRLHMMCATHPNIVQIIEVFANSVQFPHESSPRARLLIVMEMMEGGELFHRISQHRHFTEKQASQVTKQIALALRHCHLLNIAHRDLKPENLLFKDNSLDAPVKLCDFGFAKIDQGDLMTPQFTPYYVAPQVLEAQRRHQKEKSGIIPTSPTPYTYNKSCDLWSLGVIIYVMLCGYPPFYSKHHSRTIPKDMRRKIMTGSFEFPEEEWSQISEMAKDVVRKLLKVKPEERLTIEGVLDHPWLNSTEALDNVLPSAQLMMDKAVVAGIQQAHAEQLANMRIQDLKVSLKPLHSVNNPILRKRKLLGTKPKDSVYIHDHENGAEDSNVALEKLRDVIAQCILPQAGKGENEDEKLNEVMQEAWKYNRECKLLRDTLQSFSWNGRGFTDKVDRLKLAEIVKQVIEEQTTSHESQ

The target of experiment [13] is Dual specificity mitogen-activated protein kinase kinase 1 (Homo sapiens) (UniProt Q02750).
Dual specificity mitogen-activated protein kinase kinase 1 (Homo sapiens), sequence (Q02750 whole entry): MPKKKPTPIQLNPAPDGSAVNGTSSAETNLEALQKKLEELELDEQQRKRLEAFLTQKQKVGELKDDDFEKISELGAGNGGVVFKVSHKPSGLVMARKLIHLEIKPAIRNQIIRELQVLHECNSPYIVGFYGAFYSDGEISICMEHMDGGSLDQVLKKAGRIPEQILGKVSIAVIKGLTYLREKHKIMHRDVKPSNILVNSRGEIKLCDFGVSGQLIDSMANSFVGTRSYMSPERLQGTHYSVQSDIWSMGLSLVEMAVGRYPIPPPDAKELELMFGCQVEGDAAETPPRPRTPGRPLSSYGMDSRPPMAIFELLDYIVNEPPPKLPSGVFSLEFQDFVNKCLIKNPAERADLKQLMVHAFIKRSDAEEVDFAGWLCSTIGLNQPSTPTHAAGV
Experiment [14] addresses MAP kinase-interacting serine/threonine-protein kinase 2 (Homo sapiens) (UniProt Q9HBH9).
In experiment [15] the target is T2, Mitogen-activated protein kinase 12 (Homo sapiens) (UniProt P53778).
T2 sequence (whole entry): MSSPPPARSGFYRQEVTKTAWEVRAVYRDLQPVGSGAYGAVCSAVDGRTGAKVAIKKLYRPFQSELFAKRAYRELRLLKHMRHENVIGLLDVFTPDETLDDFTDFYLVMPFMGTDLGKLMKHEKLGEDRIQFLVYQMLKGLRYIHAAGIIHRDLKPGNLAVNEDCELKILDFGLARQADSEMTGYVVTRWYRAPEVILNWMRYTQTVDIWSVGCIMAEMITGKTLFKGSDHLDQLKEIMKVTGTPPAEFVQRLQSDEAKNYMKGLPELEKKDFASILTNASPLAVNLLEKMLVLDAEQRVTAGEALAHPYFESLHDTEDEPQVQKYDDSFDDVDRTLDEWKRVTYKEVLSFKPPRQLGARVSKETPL

The target in experiment [16] is Protein kinase C theta type (Homo sapiens) (UniProt Q04759).
In experiment [17] the target is Receptor-interacting serine/threonine-protein kinase 4 (Homo sapiens) (UniProt P57078).
Receptor-interacting serine/threonine-protein kinase 4 (Homo sapiens), sequence (P57078 whole entry): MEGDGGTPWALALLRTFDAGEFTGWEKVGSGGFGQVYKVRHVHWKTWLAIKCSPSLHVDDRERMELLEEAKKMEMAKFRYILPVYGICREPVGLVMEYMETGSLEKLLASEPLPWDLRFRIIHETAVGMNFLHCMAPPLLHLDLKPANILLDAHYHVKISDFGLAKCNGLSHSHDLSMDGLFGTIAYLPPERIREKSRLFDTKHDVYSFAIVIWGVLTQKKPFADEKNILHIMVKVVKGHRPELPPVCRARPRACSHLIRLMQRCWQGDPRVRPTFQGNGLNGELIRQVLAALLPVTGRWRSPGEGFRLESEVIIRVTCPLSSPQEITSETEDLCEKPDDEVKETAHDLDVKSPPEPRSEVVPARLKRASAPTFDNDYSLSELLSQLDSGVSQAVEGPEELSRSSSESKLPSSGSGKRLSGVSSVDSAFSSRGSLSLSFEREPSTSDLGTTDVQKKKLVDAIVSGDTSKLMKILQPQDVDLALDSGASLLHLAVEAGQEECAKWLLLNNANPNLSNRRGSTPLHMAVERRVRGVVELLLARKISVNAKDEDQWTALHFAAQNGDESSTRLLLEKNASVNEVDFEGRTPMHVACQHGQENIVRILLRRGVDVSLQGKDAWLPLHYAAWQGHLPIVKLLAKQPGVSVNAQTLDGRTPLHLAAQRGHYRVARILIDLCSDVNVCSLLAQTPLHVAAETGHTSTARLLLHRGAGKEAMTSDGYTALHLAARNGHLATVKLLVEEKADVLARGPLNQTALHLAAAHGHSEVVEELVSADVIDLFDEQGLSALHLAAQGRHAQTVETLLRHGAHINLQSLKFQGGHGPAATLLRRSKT
Experiment [18] deals with Serine/threonine-protein kinase SBK1 (Homo sapiens) (UniProt Q52WX2).
Serine/threonine-protein kinase SBK1 (Homo sapiens), sequence (Q52WX2 whole entry): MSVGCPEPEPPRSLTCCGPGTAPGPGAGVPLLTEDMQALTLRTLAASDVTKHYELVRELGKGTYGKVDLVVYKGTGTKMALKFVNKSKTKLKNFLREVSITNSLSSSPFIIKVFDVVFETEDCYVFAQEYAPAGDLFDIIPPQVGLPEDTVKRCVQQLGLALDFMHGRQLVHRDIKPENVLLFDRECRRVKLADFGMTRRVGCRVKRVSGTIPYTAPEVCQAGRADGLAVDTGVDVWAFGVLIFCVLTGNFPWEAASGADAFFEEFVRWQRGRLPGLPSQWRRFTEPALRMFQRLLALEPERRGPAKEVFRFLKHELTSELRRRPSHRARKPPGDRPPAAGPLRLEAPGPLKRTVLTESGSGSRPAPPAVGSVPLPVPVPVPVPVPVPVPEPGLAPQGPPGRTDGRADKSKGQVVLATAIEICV
In experiment [19] the target is SRSF protein kinase 2 (Homo sapiens) (UniProt P78362).
Experiment [20] addresses Tyrosine-protein kinase Yes (Homo sapiens) (UniProt P07947).
Experiment [21] concerns the target T3, Alpha-1D adrenergic receptor (Homo sapiens) (UniProt P25100).
T3 sequence (whole entry): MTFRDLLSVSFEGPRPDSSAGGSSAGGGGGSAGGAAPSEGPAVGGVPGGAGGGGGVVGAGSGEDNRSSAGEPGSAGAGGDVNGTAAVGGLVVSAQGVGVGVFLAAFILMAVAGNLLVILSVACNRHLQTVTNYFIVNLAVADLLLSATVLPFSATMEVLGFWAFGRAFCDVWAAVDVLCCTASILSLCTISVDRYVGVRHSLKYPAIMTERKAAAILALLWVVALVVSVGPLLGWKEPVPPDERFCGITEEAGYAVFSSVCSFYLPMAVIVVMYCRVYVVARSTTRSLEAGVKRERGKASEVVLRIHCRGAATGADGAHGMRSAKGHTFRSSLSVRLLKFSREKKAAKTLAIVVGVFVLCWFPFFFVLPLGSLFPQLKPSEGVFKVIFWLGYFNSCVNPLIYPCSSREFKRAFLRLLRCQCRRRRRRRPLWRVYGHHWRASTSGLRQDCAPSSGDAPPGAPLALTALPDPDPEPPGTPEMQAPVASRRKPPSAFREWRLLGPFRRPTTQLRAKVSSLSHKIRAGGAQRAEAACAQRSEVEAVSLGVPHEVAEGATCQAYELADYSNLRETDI
Particulars: Compound concentration 10.0 uM.

Setting [22] is: Compound concentration 1000.0 nM.
[23] abbreviates: Compound concentration 100.0 nM.

Cyclin-dependent kinase-like 3 (Homo sapiens), sequence (Q8IVW4 whole entry, looked up): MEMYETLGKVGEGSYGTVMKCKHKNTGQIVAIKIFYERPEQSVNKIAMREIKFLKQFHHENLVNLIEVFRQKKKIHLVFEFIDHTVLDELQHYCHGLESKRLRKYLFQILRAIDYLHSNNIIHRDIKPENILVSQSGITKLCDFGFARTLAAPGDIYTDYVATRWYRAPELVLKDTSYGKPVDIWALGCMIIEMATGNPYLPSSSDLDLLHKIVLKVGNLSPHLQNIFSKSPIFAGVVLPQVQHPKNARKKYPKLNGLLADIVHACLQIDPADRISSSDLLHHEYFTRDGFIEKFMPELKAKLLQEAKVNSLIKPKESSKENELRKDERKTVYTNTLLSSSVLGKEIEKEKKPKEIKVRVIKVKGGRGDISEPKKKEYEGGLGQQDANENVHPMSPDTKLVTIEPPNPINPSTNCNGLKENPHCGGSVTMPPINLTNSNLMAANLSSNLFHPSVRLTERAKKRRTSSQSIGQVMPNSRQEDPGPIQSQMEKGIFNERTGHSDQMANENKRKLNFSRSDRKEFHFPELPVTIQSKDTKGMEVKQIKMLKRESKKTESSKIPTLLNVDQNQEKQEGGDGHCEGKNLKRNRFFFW

A word on the inhibition: it is the percentage by which the read-out fell short of the control. On to `C[C@@H]1CN(c2cc(-c3nn(C)c4ccc(OC5(C)CC5)cc34)ncn2)C[C@H](C)O1` [MLi-2-NC], for which the residual activity in [1] (setting [22]) is 67%; in experiment [2] (setting [22]), 70%; in experiment [3] (setting [22]), 93%; in [4] (setting [22]), 100%; in [5] (setting [22]), 100%; in [6] (setting [22]), 100%. The residual activity in experiment [7] (setting [22]) is 88%; in [8] (setting [22]) it was 69%; in [9] (setting [22]), 100%; in experiment [10] (setting [22]), 98%; in experiment [11] (setting [22]), 100%; in [12] (setting [22]) it was 73%. Besides, the residual activity in experiment [13] (setting [22]) was 74%; in experiment [14] (setting [22]), 67%; in experiment [15] (setting [22]) it was 100%; in experiment [16] (setting [22]), 91%; in [17] (setting [22]), 85%; in experiment [18] (setting [22]) it was 62%. In addition, the residual activity is 88% in [19] (setting [22]) and 98% in experiment [20] (setting [22]). In addition, the inhibition in experiment [21] was 10.2%.

As for `C[C@@H]1CN(c2cc(-c3n[nH]c4ccc(OC5(C)CC5)cc34)ncn2)C[C@H](C)O1` [MLi-2], the residual activity in [1] (setting [23]) was 73%; in experiment [2] (setting [23]) it was 71%; in [3] (setting [23]), 100%; in experiment [4] (setting [23]) it was 73%; in experiment [5] (setting [23]) it was 100%; in [6] (setting [23]) it was 100%. Moreover, the residual activity in [7] (setting [23]) is 75%; in experiment [8] (setting [23]), 79%; in [9] (setting [23]), 100%; in [10] (setting [23]), 100%; in [11] (setting [23]), 88%; in experiment [12] (setting [23]), 93%. Also, the residual activity in experiment [13] (setting [23]) was 88%; in experiment [14] (setting [23]) it was 74%; in experiment [15] (setting [23]), 96%; in [16] (setting [23]), 74%; in [17] (setting [23]), 48%; in experiment [18] (setting [23]), 88%. For the same molecule, the residual activity in experiment [19] (setting [23]) is 79%; in [20] (setting [23]) it was 80%. In experiment [21], the inhibition is 3.26%.
